According to patent US20030003579A1, “Dendritic cells; methods” (priority 2000, published 2003):

What was measured:
[1] = test system: pre-DC2; test: Viability of pre-DC2 by propidium iodide staining and flow cytometry; type: cell-based, human; settings: 24 h culture
Method: (§1) Underlines indicate palindromic sequences. ODNs 1668, 2117, and 2006 are phosphorothioate forms, and ACC-30, AAC-30, and GAC-30 are phosphodiester forms. The phosphorothioate ODNs were added at 0 h at 0.1 μM or 1 μM, and the phosphodiester ODNs were added at 0, 4, and 16 h, 5 μM at each time point, to compensate for their degradation by deoxyribonuclease activity in media.
(§2) Monocytes, CD11c^+ DC, and pre-DC2 were isolated from human peripheral blood. See Grouard, et al. (1997) J. Exp'l Med. 185:1101-1111; and Kadowaki, et al. (2000) J. Exp'l Med. 192:219-226. The cells were cultured for 24 h in RPMI1640 containing 10% FCS at 2×10^4/200 μl in round-bottom 96-well culture plates in the presence of ODNs or 50 μg/ml poly I:C (Sigma). Adult dermal fibroblasts (Clonetics) were maintained as recommended by the company, and were stimulated with 50 μg/ml poly I:C for 24 h at 7.5×10^4/ml in 12-well culture plates.
IV. Analysis of viability of pre-DC2 stimulated with ODNs or poly I:C Pre-DC2 cultured for 24 h without stimulation or with ODNs or poly I:C were stained with propidium iodide, and were analyzed with a FACScan® flow cytometer (Becton Dickinson). After cell debris was excluded by an appropriate forward scatter threshold, the percentages of propidium iodide-negative cells were calculated.
Pre-DC2 were cultured for 24 h without stimulation, with the indicated ODNs, or with 50 μg/ml poly I:C. ACC-30, AAC-30, and GAC-30 were added at 5 μM. After cell debris was excluded by an appropriate forward scatter threshold, the percentages of propidium iodide-negative cells were measured by flow cytometry

[2] = test system: pre-DC2; test: Cytokine production by pre-DC2, ELISA of supernatants; type: cell-based, human; settings: 24 h
Method: as §1, §2
(§3) An IFN-α ELISA kit, an IL-12 ELISA kit (Biosource International), and an IFN-β ELISA kit (FUJIREBIO) were used to analyze cytokine production.
(§4) It was examined whether CpG ODNs and poly I:C induce pre-DC2 to produce IFN-α. Cells were stimulated with various CpG ODNs (2117, 2006, 1668: 1 μM, ACC-30, AAC-30, GAC-30: 5 μM) for 24 h, and the concentrations of IFN-α in the supernatants were measured by ELISA. Typically, cytokine is accumulated from cultures of about 2×10^4 cells in 200 μl cultured for 24 h. […] In contrast, AAC-30 and GAC-30 induced pre-DC2 to produce large amounts of IFN-α (AAC-30 508-1806 pg/ml, GAC-30 931-1362 pg/ml). ACC-30 induced pre-DC2 to produce much smaller amounts of IFN-α (18-161 pg/ml). None of the CpG ODNs used here induced CD11c^+ DC and monocytes to produce detectable levels of IFN-α.

[3] = test system: pre-DC2; test: Flow cytometric analysis of CD80 and CD86 expression on pre-DC2; type: cell-based, human; settings: for expression of CD80 and CD86 on pre-DC2: 5 μM phosphodiester ODN, 24 h
Method: as §1, §2
(§5) Freshly isolated pre-DC2 and pre-DC2 stimulated with ODNs for 24 h were stained with PE-conjugated anti-CD80 (L307.4, Becton Dickinson), PE-conjugated anti-CD86 (2331, Pharmingen), or an isotype control antibody. CD11c^+ DC cultured for 24 h without stimulation or with poly I:C were stained with FITC-conjugated anti-CD80 (L307.4), FITC-conjugated anti-CD86 (2331), or an isotype control antibody. The cells were analyzed with a FACScan® flow cytometer. Dead cells were excluded by staining with propidium iodide.
Freshly isolated pre-DC2 and pre-DC2 cultured with the CpG ODNs for 24 h were stained with PE-conjugated anti-CD80 or anti-CD86 mAbs. The upregulation of CD80 and CD86 expression on pre-DC2 is a hallmark of their differentiation into DC. Grouard, et al. (1997) J. Exp'l Med. 185:1101-1111; and Kadowaki, et al. (2000) J. Exp'l Med. 192:219-226.

[4] = test system: CD11c^+ DC; test: Flow cytometric analysis of CD80 and CD86 expression on CD11c+ DC; type: cell-based, human; settings: 50 μg/ml poly I:C, 24 h culture
Method: as §2, §5
CD11c^+ DC cultured for 24 h without stimulation or with 50 μg/ml poly I:C were stained with FITC-conjugated anti-CD80 or anti-CD86 mAbs. […] Cella, et al. (1999) J. Exp'l Med. 189:821-829; and Verdijk, et al. (1999) J. Immunol. 163:57-61. […]

[5] = test system: monocytes; test: Cytokine production by monocytes, ELISA of supernatants; type: cell-based, human; settings: 24 h; for IFN-α production by monocytes: CpG ODNs (2117, 2006, 1668: 1 μM; ACC-30, AAC-30, GAC-30: 5 μM)
Method: as §1, §2, §3, §4

[6] = test system: Adult dermal fibroblasts; test: IFN-β production by poly I:C stimulated fibroblasts, ELISA; type: cell-based; settings: 50 μg/ml poly I:C, 24 h, 7.5×10^4/ml
Method: as §2, §3

[7] = test system: CD11c^+ DC; test: Cytokine production by CD11c+ DC, ELISA of supernatants; type: cell-based, human; settings: 24 h
Method: as §1, §2, §3, §4

[8] = 5 μM phosphodiester ODN added at 0, 4 and 16 h
[9] = 5 μM ODN, about 2×10^4 cells in 200 μl
[10] = CpG ODNs (2117, 2006, 1668: 1 μM; ACC-30, AAC-30, GAC-30: 5 μM)

For “ACC-30: oligodeoxynucleotide ACCGATACCGGTGCCGGTGACGGCACCACG (DNA, all phosphodiester, methylation of C not given here)”, the “survival of pre-DC2 (propidium iodide-negative cells)” value (from here on “survival of pre-DC2”) [1, 8] was “less efficient” and the “IFN-α production by pre-DC2” value [2, 9] was 18 to 161 pg/mL.
In the case of “polyinosinic polycytidylic acid [poly I:C]”, the “survival of pre-DC2” value ([1]; 50 μg/ml poly I:C) is reported as “did not maintain the survival of pre-DC2”, the “differentiation of pre-DC2 into DC” value ([3]; poly I:C) is reported as “does not stimulate pre-DC2 to survive and to differentiate into DC” and the “expression of CD80 and CD86 on CD11c+ DC” value [4] is reported as “strongly upregulated”. For the same substance, the “IFN-β production by monocytes” value ([5]; 50 μg/ml poly I:C) was “but not pre-DC2 or monocytes”, the “IFN-β production by fibroblasts” value [6] was 28.6 to 48.5 pg/mL and the “IFN-α production by CD11c+ DC” value ([7]; 50 μg/ml poly I:C) was 24.1 to 97.9 pg/mL. The “IFN-β production by CD11c+ DC” value ([7]; 50 μg/ml poly I:C) was 33.6 to 166.5 pg/mL, the “IL-12 production by CD11c+ DC” value ([7]; 50 μg/ml poly I:C) was 17.7 to 137.7 pg/mL and the “IFN-α production by pre-DC2” value ([2]; 50 μg/ml poly I:C) was “did not induce pre-DC2 to produce a detectable level of IFN-α”.
With “AAC-30: palindromic CpG oligodeoxynucleotide ACCGATAACGTTGCCGGTGACGGCACCACG (DNA, all phosphodiester, methylation of C not given here)” the “survival of pre-DC2” value [1, 8] was “maintained the survival of pre-DC2”, the “expression of CD80 and CD86 on pre-DC2” value [3] was “upregulated CD80 and CD86, albeit to a lesser extent than 2006 and 2117” and the “IFN-α production by monocytes” value [5] was “did not produce detectable levels of IFN-α”. The “IFN-α production by CD11c+ DC” value [7, 10] was “did not produce detectable levels of IFN-α” and the “IFN-α production by pre-DC2” value [2, 9] was 508 to 1806 pg/mL.
With “1668: CpG oligodeoxynucleotide TCCATGACGTTCCTGATGCT (DNA, all phosphorothioate, methylation of C not given here) [compound 1668]” the “survival of pre-DC2” value ([1]; 1 μM phosphorothioate ODN) was “did not maintain the survival of pre-DC2” and the “IFN-α production by pre-DC2” value ([2]; 1 μM ODN, about 2×10^4 cells in 200 μl) was “did not induce pre-DC2 to produce detectable levels of IFN-α”.
“GAC-30: palindromic CpG oligodeoxynucleotide ACCGATGACGTCGCCGGTGACGGCACCACG (DNA, all phosphodiester, methylation of C not given here)” was tested, and the “survival of pre-DC2” value [1, 8] was “maintained the survival of pre-DC2”, the “expression of CD80 and CD86 on pre-DC2” value [3] was “upregulated CD80 and CD86, albeit to a lesser extent than 2006 and 2117” and the “IFN-α production by monocytes” value [5] was “did not produce detectable levels of IFN-α”. The “IFN-α production by CD11c+ DC” value [7, 10] was “did not produce detectable levels of IFN-α” and the “IFN-α production by pre-DC2” value [2, 9] was 931 to 1362 pg/mL.
